Patent US20160238590A1, “COMPOSITIONS AND METHODS RELATED TO OAT SENSITIVITY” (IMMUSANT, INC., priority 2013, published 2016)

Experiments:
Type in all cases: cell-based, human
Patient 14 TCC-01 = test: IFN-γ ELISpot with T cell clone; details: TCC Patient 14 TCC-01 (Table 5); mean no antigen 11.3, high background, SFU >25 considered as positive responses
Protocol: (§1) Peripheral blood mononuclear cells (PBMC) were isolated from heparinized whole blood using Ficoll-Paque™ Plus density-gradient centrifugation (GE Healthcare). IFN-γ ELISpot (Mabtech) was set up as previously described^8.
(§2) Isolation of TCC from CD patients was carried out as previously described^8. Briefly, CFSE-labeled PBMC were incubated with antigen for 7 days in IMDM supplemented with 5% heat-inactivated pooled human serum (PHS), 2 mM GlutaMAX™, 100 μM MEM non-essential amino acids (both from Gibco, Invitrogen), and 50 μM 2-mercaptoethanol (Sigma). Proliferated cells were single-cell sorted into 96-well plates containing IL-2, IL-4, anti-CD3 mAb, irradiated feeder cells (allogeneic PBMC and JY-EBV). TCC were expanded and maintained in IL-2 and IL-4 and tested for specificity by ELISpot with irradiated HLA-matched PBMC as antigen-presenting cells. Expanded clones were tested for HLA-DQ restriction, TCR Vbeta usage, and with lysine scans to work out minimal epitopes. See Table 1 below for TCC and epitope information.

Patient 6 TCC-01 = test: IFN-γ ELISpot with T cell clone; details: TCC Patient 6 TCC-01 (Table 5); mean no antigen 2
Protocol: as §1, §2

Patient 2 TCC-01 = test: IFN-γ ELISpot with T cell clone; details: TCC Patient 2 TCC-01 (Table 5); mean no antigen 1.1
Protocol: as §1, §2

PBMC [1] = test: IFN-γ ELISpot on PBMC of CD patients on day 6 after 3-day oats challenge; details: after 3-day oats challenge
Text: (§3) Australian Caucasian HLA-DQ2.5^+ and/or HLA-DQ8^+ CD subjects were recruited by advertisement in the Coeliac Society of Victoria newsletter and all had biopsy-proven CD conforming to ESPGHAN criteria. Patients had been on strict gluten free diet for at least 4 weeks prior to commencing grain challenge. Patients underwent 3-day grain challenge with oats, barley, or combined wheat, barley, and rye muffins, and 6 days after commencement, blood was collected. Day 0 responses were not observed in the selection of patients tested, as described previously^8.
(§4) Oats challenge consisted of 100 g dry weight daily of one of three commercial brands of oats: one not tested for wheat contamination (Uncle Toby's; Oats #1), and two shown by R5 ELISA to contain less than 20 ppm wheat gluten (Tilquhilie Pudding; Oats #2 and Freedom Food; Oats #3). Barley challenge consisted of pearl barley (Ward McKenzie) cooked into a risotto (150 g dry weight daily) and the wheat challenge consisted of four 50 g slices of wheat bread daily (Baker's Delight white loaf cut to toasting thickness). The combined wheat, barley, and rye challenge consisted of muffins baked with wheat flour (White Wings), barley flour (Four Leaf Milling), and rye flour (Four Leaf Milling; 22-25 g dry weight each daily). A symptom diary based on a […] Likert scale was completed by participants daily from baseline until day 6.
(§5) Two avenin peptide libraries were utilized for epitope screening. These were designed using avenin sequences from GenBank and a customized algorithm, as previously described^9. The initial library consisted of 199 screening-grade 20 mers including all possible 12 mers (Mimotopes). This library was screened with and without tTG pre-treatment. The second library consisted of additional avenin sequences that were synthesized with glutamate substitution at sites predicted to be deamidated by published algorithms^10, 11 removing the requirement for tTG treatment. This library contained 369 screening-grade 20 mers, including all possible 12 mers (Pepscan). The second round avenin library contained wild-type and deamidated versions of the most immunogenic sequences (25 high quality 16 mers from Mimotopes). High quality peptides containing previously described immunogenic sequences from wheat, barley, and rye were used to test for cross-reactivity^8 (Pepscan). High quality hordein and avenin peptides for TCC testing and biochemical studies were ordered from Pepscan, Mimotopes, or GL Biochem.
as §1

PBMC [2] = test: IFN-γ ELISpot on PBMC of CD patients after 3-day barley challenge; details: after barley challenge
Text: as §3, §4, §5, §1

Sequence: QYQPYPEQEQPILQQQ [partially deamidated avenin peptide containing DQ2.5-ave-1c]
- IFN-γ ELISpot response (raw SFU) (Patient 14 TCC-01): 21 SFU
- IFN-γ ELISpot response (raw SFU) (Patient 6 TCC-01): 5 SFU
- IFN-γ ELISpot response (raw SFU) (Patient 2 TCC-01): 288 SFU
- IFN-γ ELISpot response (raw SFU) (PBMC [1]; patient P1, peptide 1 μg/ml): 11 SFU
- significant SFU as a percentage of maximal peptide SFU (PBMC [1]; patient P1, peptide 1 μg/ml): * (*: 20-40%)
- IFN-γ ELISpot response (raw SFU) (PBMC [1]; patient P1, peptide 10 μg/ml): 33 SFU
- significant SFU as a percentage of maximal peptide SFU (PBMC [1]; patient P1, peptide 10 μg/ml): *** (***: >70%)
- IFN-γ ELISpot response (raw SFU) (PBMC [1]; patient P1, peptide 100 μg/ml): 11 SFU
- significant SFU as a percentage of maximal peptide SFU (PBMC [1]; patient P1, peptide 100 μg/ml): * (*: 20-40%)
- IFN-γ ELISpot response (raw SFU) (PBMC [1]; patient P2, peptide 1 μg/ml): 6 SFU
- IFN-γ ELISpot response (raw SFU) (PBMC [1]; patient P2, peptide 10 μg/ml): 34 SFU
- significant SFU as a percentage of maximal peptide SFU (PBMC [1]; patient P2, peptide 10 μg/ml): ** (**: 40-70%)
- IFN-γ ELISpot response (raw SFU) (PBMC [1]; patient P2, peptide 100 μg/ml): 38 SFU
- significant SFU as a percentage of maximal peptide SFU (PBMC [1]; patient P2, peptide 100 μg/ml): *** (***: >70%)
- IFN-γ ELISpot response (raw SFU) (PBMC [1]; patient P3, peptide 1 μg/ml): 19 SFU
- significant SFU as a percentage of maximal peptide SFU (PBMC [1]; patient P3, peptide 1 μg/ml): * (*: 20-40%)
- IFN-γ ELISpot response (raw SFU) (PBMC [1]; patient P3, peptide 10 μg/ml): 26 SFU
- significant SFU as a percentage of maximal peptide SFU (PBMC [1]; patient P3, peptide 10 μg/ml): ** (**: 40-70%)
- IFN-γ ELISpot response (raw SFU) (PBMC [1]; patient P3, peptide 100 μg/ml): 18 SFU
- significant SFU as a percentage of maximal peptide SFU (PBMC [1]; patient P3, peptide 100 μg/ml): * (*: 20-40%)
- IFN-γ ELISpot response (raw SFU) (PBMC [1]; patient P11, peptide 1 μg/ml): 3 SFU
- IFN-γ ELISpot response (raw SFU) (PBMC [1]; patient P11, peptide 10 μg/ml): 41 SFU
- significant SFU as a percentage of maximal peptide SFU (PBMC [1]; patient P11, peptide 10 μg/ml): *** (***: >70%)
- IFN-γ ELISpot response (raw SFU) (PBMC [1]; patient P11, peptide 100 μg/ml): 50 SFU
- significant SFU as a percentage of maximal peptide SFU (PBMC [1]; patient P11, peptide 100 μg/ml): *** (***: >70%)
- IFN-γ ELISpot response (raw SFU) (PBMC [1]; patient P12, peptide 1 μg/ml): 1 SFU
- IFN-γ ELISpot response (raw SFU) (PBMC [1]; patient P12, peptide 10 μg/ml): 39 SFU
- significant SFU as a percentage of maximal peptide SFU (PBMC [1]; patient P12, peptide 10 μg/ml): ** (**: 40-70%)
- IFN-γ ELISpot response (raw SFU) (PBMC [1]; patient P12, peptide 100 μg/ml): 31 SFU
- significant SFU as a percentage of maximal peptide SFU (PBMC [1]; patient P12, peptide 100 μg/ml): ** (**: 40-70%)
- IFN-γ ELISpot response (raw SFU) (PBMC [1]; patient P13, peptide 50 μg/ml): 4 SFU
- IFN-γ ELISpot response (raw SFU) (PBMC [2]; Patient 1, peptide 50 μg/ml): 58 SFU
- significant SFU as a percentage of maximal peptide SFU (PBMC [2]; Patient 1, peptide 50 μg/ml): ^^ (^^: 10-20%)
- IFN-γ ELISpot response (raw SFU) (PBMC [2]; Patient 2, peptide 50 μg/ml): 220 SFU
- significant SFU as a percentage of maximal peptide SFU (PBMC [2]; Patient 2, peptide 50 μg/ml): *** (***: >70%)
- IFN-γ ELISpot response (raw SFU) (PBMC [2]; Patient 3, peptide 50 μg/ml): 34 SFU
- significant SFU as a percentage of maximal peptide SFU (PBMC [2]; Patient 3, peptide 50 μg/ml): * (*: 20-40%)
